Patent US20120289472A1, “MOLECULES CAPABLE OF INDUCING CELL DEATH BY TARGETING THE MITOCHONDRIA AND APPLICATIONS THEREOF” (priority 2009, published 2012)
Like-named read-outs stand apart in the source and are kept apart here. Where a SMILES comes first, the peptide text is derived from it. Where no end group is shown, it is not given here. The star is where a group is joined. Cbz = O=C(OCc1ccccc1)*; CH2F = FC*

Legend:
HT-1080 cells = assay: Cell death of HT-1080 cells expressing GFP fused to Bax membrane insertion fragments; format: cell-based, human; conditions: zVAD.fmk 100 μM
Experimental: The various constructs were transfected into human cells cultured in vitro (HT-1080 and SK-MEL-28), and then the subcellular localization and the cytotoxicity induced by the Bax membrane insertion fragments fused to GFP were determined.
FIG. 5A gives the death rate (apoptosis/necrosis) of HT-1080 cells expressing GFP alone or as a fusion with various membrane insertion fragments of the Bax death protein. The cells were treated (+) or not (−) with the general caspase inhibitor zVAD.fmk (100 μM). Cell death was quantified 24 h after transfection by counting the number of green cells (expressing GFP) under an epifluorescence microscope. The type of cell death (apoptosis and necrosis) was determined through the membrane permeability to propidium iodide (necrosis) and the nuclear morphology (condensed or fragmented nuclei) after staining with Hoechst 33342 (apoptosis). […] The results represent the mean values (with the standard deviations) of the three experiments.
In this experiment, the cell death was quantified using the Annexin-V-Cyanine 3 test by flow cytometry 24 h after transient transfection of the cells with the plasmids of interest.

HeLa cells [1] = assay: Cytotoxicity in HeLa cells by LDH release; format: cell-based
Experimental: (A) HeLa cells were incubated for 6 h in the presence of 10 μM of poropeptide FITC-R8-Bax or of control peptide R8-Bax [Scr] (“scramble” version of the poropeptide), and then observed under an epifluorescence microscope. […] Scale 10 μm. […] HeLa cells were treated with increasing concentrations (5, 10, 25 and 50 μM) of peptide […] or […]. The cytotoxicity was determined by measuring the cellular release of lactate dehydrogenase (LDH) after 3, 6 or 24 h of incubation (n=4). […] The results are given in means and standard deviations. […] (25 μM). The cytotoxicity was determined by measuring the cellular release of lactate dehydrogenase (LDH) after 3, 6 or 24 h of incubation in the presence of 100 μM of zVAD.fmk or of buffer alone (‘DMSO’). The results are given as means and standard deviations. (D) Death rate (apoptosis/necrosis) of HeLa cells treated with poropeptide R8-Bax. The type of cell death was determined 24 h after transfection by observation of cell permeability to propidium iodide (necrosis) or of nuclear morphology after DNA staining with Hoechst 33342 (apoptosis). The green cells (expressing GFP) were visualized by epifluorescence microscopy. Approximately 300 cells were counted per experiment. The results are a mean of three independent experiments (the standard deviation is also represented).

[2] = test system: SK-MEL-28 human melanoma cells; assay: Cell viability after microinjection into SK-MEL-28 melanoma cells; format: cell-based; conditions: SK-MEL-28, 12 h after microinjection; for cell death / viability after microinjection: versus control
Experimental: Poropeptide-Bax was then mixed with a solution of dextran-fluorescein (so as to allow its visualization by epifluorescence microscopy), and then microinjected into SK-MEL-28 human melanoma cells. Cell viability was then monitored and quantified 12 hours after microinjection.
(A) Micrographs showing SK-MEL-28 human melanoma cells injected with Dextran-FITC fluorescent tracer alone (‘mock’) or mixed with poropeptide-Bax. The cells were photographed 12 h after microinjection. […] Magnification×800. (B) Cell viability after microinjection of poropeptide-Bax or of Bax-BH3, KLAK or R8 peptide. The cells microinjected were visualized by means of the Dextran-FITC tracer. […] The data shown are representative of 2 independent experiments giving the same results.

HeLa cells [3] = assay: Internalization of fluorescent peptides by HeLa cells (epifluorescence microscopy); format: cell-based
Experimental: The poropeptide of sequence SEQ ID No. 1, comprising a polyarginine N-terminal extension (R8) separated by a glycine residue, was used. A fluorescein isothiocyanate (FITC) group was added in the C-terminal position so as to allow its visualization by epifluorescence microscopy. The R8-Scr-FITC peptide is a “scramble” sequence of the sequence present in the R8-Bax [106-134]-FITC peptide, i.e. a control sequence in which the amino acids (their order in the sequence) have been mixed-up.
(A) HeLa cells were incubated for 6 h in the presence of 10 μM of poropeptide FITC-R8-Bax or of control peptide R8-Bax [Scr] (“scramble” version of the poropeptide), and then observed under an epifluorescence microscope. […] Scale 10 μm. […] The cytotoxicity was determined by measuring the cellular release of lactate dehydrogenase (LDH) after 3, 6 or 24 h of incubation (n=4). […] The cytotoxicity was determined by measuring the cellular release of lactate dehydrogenase (LDH) after 3, 6 or 24 h of incubation in the presence of 100 μM of zVAD.fmk or of buffer alone (‘DMSO’). […] The type of cell death was determined 24 h after transfection by observation of cell permeability to propidium iodide (necrosis) or of nuclear morphology after DNA staining with Hoechst 33342 (apoptosis). […] Approximately 300 cells were counted per experiment. […]

Zebrafish eggs = assay: Microinjection into zebrafish eggs (mortality, malformations); format: in vivo, Danio rerio
From the text: Poropeptide-Bax was microinjected in vivo. The zebrafish (Danio rerio) model was used because (i) the apoptotic machinery is conserved between human cells and fish cells; (ii) the egg corresponds to an integrated cell system compared with isolated mitochondria; (iii) zebrafish eggs can be easily injected routinely.
(A) Zebrafish eggs were microinjected at the 1-2 cell(s) stage with increasing concentrations of poro-peptide-Bax, of Bax-BH3 peptide or with ultrapure water ('mock'). A concentration of 100 μM inside the microinjection capillary corresponds to approximately […] molecules of peptide per egg. […] The data shown are representative of 2 independent experiments giving the same results. (B) Embryonic morphology 24 h after microinjection (100 μM of peptide).

[4] = test system: mitochondria isolated from rat liver; assay: Swelling and depolarization of mitochondria isolated from rat liver; format: biochemical
Experimental: Poropeptide-Bax (106-134) induces swelling of the mitochondria (DD50=1.68±0.39 μM) and a drop in their transmembrane potential (SD50=3.98±0.57 μM). These two parameters were measured using mitochondria isolated from rat liver, incubated in the presence of various concentrations of poropeptide-Bax (106-134) (NT=not treated).

isolated mitochondria = assay: Cytochrome c release from isolated mitochondria (Western blotting of supernatant); format: biochemical; conditions: for incubation time at which cytochrome c is released: 10 μM
Experimental: The ex cellulo activity of poropeptide-Bax (106-134) was tested by determining its ability to promote the release of cytochrome c from the intermembrane space of isolated mitochondria. The results obtained are shown by FIG. 9 (A).
The peptide is incubated with the mitochondria for 5, 15, 30 or 60 min, and the mitochondrial release of cytochrome c into the supernatant (SN) is measured by Western blotting. The mitochondrial fractions (Mito) are calibrated using an antibody directed against the HSP70 or ATPase (subunit 6) mitochondrial proteins. With poropeptide-Bax (106-134), cytochrome c is released from the intermembrane space of the mitochondrion at 10 μM and in 5 min of incubation. No release is observed when an artificial antimicrobial peptide (KLAK) of sequence SEQ ID No. 2 KLAKLAKKLAKLAK is used.

[5] = test system: MEF-DKO murine fibroblasts; assay: Apoptosis of wild-type MEF and Bax/Bak-deficient MEF-DKO fibroblasts (Annexin V-Cy3, flow cytometry); format: cell-based
From the text: The graph (FIG. 6A) corresponds to a time course of cell death (quantified by flow cytometry by means of the Annexin V-Cy3 test) of MEF wild-type murine fibro-blasts compared with MEF-DKO murine fibroblasts.

Compound: COC(=O)C[C@H](NC(=O)[C@H](C)NC(=O)[C@@H](NC(=O)OCc1ccccc1)C(C)C)C(=O)CF [zVAD.fmk, reference compound] (Cbz-Val-Ala-Asp(OMe)-CH2F)
- effect of caspase inhibitor on apoptosis caused by Bax membrane insertion fragments (HT-1080 cells): blocking of the apoptosis
- effect of caspase inhibitor on cell death induced by poropeptide R8-Bax [106-134] (LDH release) (HeLa cells [1]; HeLa, zVAD.fmk 100 μM, poropeptide 25 μM, 3, 6 or 24 h): reduces cell death

Compound: RRRRRRRR [R8, control peptide, a polyarginine intracellular transduction motif, reference compound]
- cell death / viability after microinjection [2]: viability rates comparable to the control

Compound: R8-Bax [106-134]: poropeptide of SEQ ID No. 1 with polyarginine N-terminal extension (R8) separated by a glycine residue, FITC group added (RRRRRRRRGNWGRVVALFYFASKLVLKALCTKVPELIR; also: FITC group added, position not given here; UniProt Q07812 106-134, looked up, fragment)
- time to internalization (HeLa cells [3]; HeLa cells in culture in vitro): in less than one hour
- cytoplasmic labeling of cells (HeLa cells [3]; HeLa, 10 μM, 6 h): strong cytoplasmic labeling
- cytotoxicity by cellular release of lactate dehydrogenase (LDH) (HeLa cells [1]; HeLa, 5, 10, 25 and 50 μM, 3, 6 or 24 h): loss of cell viability which is dose-dependent and incubation time-dependent

Compound: H-NWGRVVALFYFASKLVLKALSTKVPELIR-OH [poropeptide-Bax (106-134)]
- embryonic morphology (Zebrafish eggs; 24 h after microinjection, 100 μM of peptide, compared with BH3 peptide group): Severe malformations
- cytotoxic effects after introduction into zebrafish eggs (Zebrafish eggs; increasing concentrations, microinjection at 1-2 cell stage): dose-dependent cytotoxic effects
- EC50 ([4]; read-out: drop in transmembrane potential (SD50)): 3.98 ± 0.57 µM
- EC50 ([4]; read-out: swelling of the mitochondria (DD50)): 1.68 ± 0.39 µM
- minimum concentration for which cytochrome c release is observed (isolated mitochondria): 10 µM
- incubation time at which cytochrome c is released (isolated mitochondria): 5 min
- incubation time at which cytochrome c is released (isolated mitochondria; listed as Poropeptide-Bax (106-134)): ≤ 5 min
- cell morphology after microinjection [2]: characteristic morphological manifestations of apoptosis
- cell death / viability after microinjection [2]: substantial cell death

Compound: CN[C@@H]1C[C@H]2O[C@@](C)([C@@H]1OC)n1c3ccccc3c3c4c(c5c6ccccc6n2c5c31)C(=O)NC4 [staurosporine]
- apoptosis induced in MEF-DKO cells [5]: resistant

Compound: KLAKLAKKLAKLAK [artificial antimicrobial peptide, reference compound]
- cytochrome c release from intermembrane space (isolated mitochondria; incubation 5-60 min): No release
- cell death / viability after microinjection [2]: no significant effect
